# Experimental data reported in patent US20060241027A1, “Hiv inhibiting proteins” (priority 2002, published 2006).
# Read-outs that look alike come from different tables or passages of the source.
# How the values were obtained:
# [1] = molecular target: HIV-1 gp41 (transmembrane subunit of the HIV-1 envelope glycoprotein) (HIV-1) (UniProt P03377); assay: cell-based or functional assay
# HIV = settings: 12.5 mg/day to 200 mg/day (Gulick, 2002); cited from earlier work
# [2] = primates; cited from earlier work
# HIV-2 = settings: cited from earlier work
# HIV-1 [3] = settings: cited from earlier work
# SIV = settings: cited from earlier work
# [4] = cited from earlier work; for terminal half-life: humans
# HIV-1 [5] = settings: low nanomolar range; cited from earlier work
substance,measurement,setting,value
"C-terminal albumin-(GGS)4GG-T-20 fusion protein, expressed in the pmt1 gene deficient yeast strain (from UniProt P02768 25-609)","50% inhibitory concentration, HIV-1 cell-cell fusion assay on Jurkat cells",[1],4 to 13 nM
"C-terminal albumin-(GGS)4GG-T-1249 fusion protein, produced in the standard (PMT1) yeast strain (from UniProt P02768 25-609)","50% inhibitory concentration (IC50), HIV-1 cell-cell fusion assay on Jurkat cells",[1],0.01 to 0.1 µM
WQEWEQKITALLEQAQIQQEKNEYELQKLDKWASLWEWF [T-1249],suppression of HIV,HIV,dose-related suppression of HIV
same,half-life / AUC compared with T-20,[2],twofold increased AUC
same,activity against HIV-2,HIV-2,active
same,activity against HIV-1,HIV-1 [3],active
same,activity against SIV,SIV,active
enfuvirtide,plasma half-life,"[4]; clinical trials, typical dose 50 mg twice daily",about 1.8 hours
same,terminal half-life,"[4]; 45 mg subcutaneous dose (Zhang X et al., 2002)",3.46 h
same,terminal half-life,"[4]; 180 mg subcutaneous dose (Zhang X et al., 2002)",4.35 h
same,activity against HIV-2,HIV-2,does not inhibit
same,antiviral activity in cell-cell fusion assays,HIV-1 [5],0.2 to 2 nM
same,activity against HIV-1,HIV-1 [3],active against several clades of HIV-1
same,activity against SIV,SIV,does not inhibit
